In PubChem BioAssay (NCI):
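Each compound was tested at five concentrations against cells in 96-well plates for 48 hours. TGI: total growth inhibition.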 Where a SMILES comes first, the peptide text is derived from it. [ ]: non-standard residue; d: D form. The star is where a group is joined. Boc = CC(C)(C)OC(=O)*; Lac = C[CH](O)C(=O)O; OBn = c1ccc(CO*)cc1

Tested on: NCI-H23 lung
Test: NCI-60 cell line screen, 48 h

Q: `CC1=NN(c2nc(N)nc(/C(C#N)=C/c3ccccc3O)n2)C(C)(C)C1` was tested. Which TGI did it give?
A: Its TGI is 34.5 µM.

Q: `Cc1c(-c2ccc(O)cc2)n(CCCCCCNCCOC(=O)NCCCc2ccc(N(CCCl)CCCl)cc2)c2ccc(O)cc12` was tested. Which TGI did it give?
A: The TGI was 3.45 µM.

Q: With `CN(C)c1ccc(C2CC(c3ccc4ccccc4c3O)=NN2)cc1` (configuration not stated) as the compound, how does the TGI read?
A: Its TGI is > 100 µM.

Q: `CN1CCc2cc3c(c4c2C1C(O)c1ccccc1-4)OCO3` (configuration not stated) was tested. Which TGI did it give?
A: Its TGI is 48.2 µM.

Q: For `C1=CC2(C=CC13O[C@H](C1CCCCC1)[C@@H](C1CCCCC1)O3)O[C@H](C1CCCCC1)[C@@H](C1CCCCC1)O2`, which TGI is on record?
A: Its TGI is > 50 µM.

Q: `CC(OC(=O)C(Cc1ccccc1)NC(=O)C(Cc1ccccc1)NC(=O)OC(C)(C)C)C(=O)OCc1ccccc1` (stereo not drawn) (Boc-Phe-Phe-[Lac]-OBn; configuration not given here) was tested. Which TGI did it give?
A: The TGI was > 100 µM.

Tested on: NCI-H460 lung
Test: NCI-60 cell line screen, 48 h

Q: With `CC1=NN(c2nc(N)nc(/C(C#N)=C/c3ccccc3O)n2)C(C)(C)C1` as the compound, how does the TGI read?
A: The TGI was 40.9 µM.

Q: For `Cc1c(-c2ccc(O)cc2)n(CCCCCCNCCOC(=O)NCCCc2ccc(N(CCCl)CCCl)cc2)c2ccc(O)cc12`, which TGI is on record?
A: The TGI was 5.05 µM.

Q: Which TGI does the source give for `COc1ccc(NC(=S)Nc2cc(C)cc(C)n2)cc1` here?
A: Its TGI is > 100 µM.

Q: With `CN(C)c1ccc(C2CC(c3ccc4ccccc4c3O)=NN2)cc1` (configuration not stated) as the compound, how does the TGI read?
A: The TGI was > 100 µM.

Q: Which TGI does the source give for `CN1CCc2cc3c(c4c2C1C(O)c1ccccc1-4)OCO3` (configuration not stated) here?
A: Its TGI is 11.9 µM.

Q: With `C1=CC2(C=CC13O[C@H](C1CCCCC1)[C@@H](C1CCCCC1)O3)O[C@H](C1CCCCC1)[C@@H](C1CCCCC1)O2` as the compound, how does the TGI read?
A: The TGI was > 50 µM.

Q: How did the TGI turn out when `CC(OC(=O)C(Cc1ccccc1)NC(=O)C(Cc1ccccc1)NC(=O)OC(C)(C)C)C(=O)OCc1ccccc1` (stereo not drawn) (Boc-Phe-Phe-[Lac]-OBn; configuration not given here) was run?
A: Its TGI is > 100 µM.

Tested on: NCI-H522 lung
Test: NCI-60 cell line screen, 48 h

Q: Which TGI does the source give for `CC1=NN(c2nc(N)nc(/C(C#N)=C/c3ccccc3O)n2)C(C)(C)C1` here?
A: Its TGI is 36 µM.

Q: For `Cc1c(-c2ccc(O)cc2)n(CCCCCCNCCOC(=O)NCCCc2ccc(N(CCCl)CCCl)cc2)c2ccc(O)cc12`, which TGI is on record?
A: Its TGI is 3.44 µM.

Q: With `COc1ccc(NC(=S)Nc2cc(C)cc(C)n2)cc1` as the compound, how does the TGI read?
A: The TGI was > 100 µM.

Q: Which TGI does the source give for `CN(C)c1ccc(C2CC(c3ccc4ccccc4c3O)=NN2)cc1` (configuration not stated) here?
A: Its TGI is 85.5 µM.

Q: How did the TGI turn out when `CN1CCc2cc3c(c4c2C1C(O)c1ccccc1-4)OCO3` (configuration not stated) was run?
A: Its TGI is 13.7 µM.

Q: With `CC(OC(=O)C(Cc1ccccc1)NC(=O)C(Cc1ccccc1)NC(=O)OC(C)(C)C)C(=O)OCc1ccccc1` (stereo not drawn) (Boc-Phe-Phe-[Lac]-OBn; configuration not given here) as the compound, how does the TGI read?
A: Its TGI is > 100 µM.

Tested on: NCI/ADR-RES ovarian
Test: NCI-60 cell line screen, 48 h

Q: `CC1=NN(c2nc(N)nc(/C(C#N)=C/c3ccccc3O)n2)C(C)(C)C1` was tested. Which TGI did it give?
A: The TGI was 47 µM.

Q: `COc1ccc(NC(=S)Nc2cc(C)cc(C)n2)cc1` was tested. Which TGI did it give?
A: The TGI was > 100 µM.

Q: Which TGI does the source give for `CN(C)c1ccc(C2CC(c3ccc4ccccc4c3O)=NN2)cc1` (configuration not stated) here?
A: The TGI was > 100 µM.

Q: How did the TGI turn out when `CN1CCc2cc3c(c4c2C1C(O)c1ccccc1-4)OCO3` (configuration not stated) was run?
A: Its TGI is 53.9 µM.

Q: With `C1=CC2(C=CC13O[C@H](C1CCCCC1)[C@@H](C1CCCCC1)O3)O[C@H](C1CCCCC1)[C@@H](C1CCCCC1)O2` as the compound, how does the TGI read?
A: The TGI was > 50 µM.

Q: How did the TGI turn out when `CC(OC(=O)C(Cc1ccccc1)NC(=O)C(Cc1ccccc1)NC(=O)OC(C)(C)C)C(=O)OCc1ccccc1` (stereo not drawn) (Boc-Phe-Phe-[Lac]-OBn; configuration not given here) was run?
A: Its TGI is > 100 µM.

Tested on: OVCAR-3 ovarian
Test: NCI-60 cell line screen, 48 h

Q: How did the TGI turn out when `CC1=NN(c2nc(N)nc(/C(C#N)=C/c3ccccc3O)n2)C(C)(C)C1` was run?
A: Its TGI is 27.8 µM.

Q: How did the TGI turn out when `Cc1c(-c2ccc(O)cc2)n(CCCCCCNCCOC(=O)NCCCc2ccc(N(CCCl)CCCl)cc2)c2ccc(O)cc12` was run?
A: Its TGI is 6.41 µM.

Q: How did the TGI turn out when `COc1ccc(NC(=S)Nc2cc(C)cc(C)n2)cc1` was run?
A: The TGI was > 100 µM.

Q: Which TGI does the source give for `CN(C)c1ccc(C2CC(c3ccc4ccccc4c3O)=NN2)cc1` (configuration not stated) here?
A: The TGI was > 100 µM.

Q: How did the TGI turn out when `CN1CCc2cc3c(c4c2C1C(O)c1ccccc1-4)OCO3` (configuration not stated) was run?
A: Its TGI is 44.1 µM.

Q: Which TGI does the source give for `C1=CC2(C=CC13O[C@H](C1CCCCC1)[C@@H](C1CCCCC1)O3)O[C@H](C1CCCCC1)[C@@H](C1CCCCC1)O2` here?
A: The TGI was > 50 µM.

Q: `CC(OC(=O)C(Cc1ccccc1)NC(=O)C(Cc1ccccc1)NC(=O)OC(C)(C)C)C(=O)OCc1ccccc1` (stereo not drawn) (Boc-Phe-Phe-[Lac]-OBn; configuration not given here) was tested. Which TGI did it give?
A: Its TGI is > 100 µM.

Tested on: OVCAR-4 ovarian
Test: NCI-60 cell line screen, 48 h

Q: How did the TGI turn out when `CC1=NN(c2nc(N)nc(/C(C#N)=C/c3ccccc3O)n2)C(C)(C)C1` was run?
A: Its TGI is 34.2 µM.

Q: How did the TGI turn out when `Cc1c(-c2ccc(O)cc2)n(CCCCCCNCCOC(=O)NCCCc2ccc(N(CCCl)CCCl)cc2)c2ccc(O)cc12` was run?
A: The TGI was 4.44 µM.

Q: `COc1ccc(NC(=S)Nc2cc(C)cc(C)n2)cc1` was tested. Which TGI did it give?
A: The TGI was > 100 µM.

Q: Which TGI does the source give for `CN(C)c1ccc(C2CC(c3ccc4ccccc4c3O)=NN2)cc1` (configuration not stated) here?
A: The TGI was > 100 µM.

Q: `CN1CCc2cc3c(c4c2C1C(O)c1ccccc1-4)OCO3` (configuration not stated) was tested. Which TGI did it give?
A: The TGI was 29.5 µM.

Q: Which TGI does the source give for `C1=CC2(C=CC13O[C@H](C1CCCCC1)[C@@H](C1CCCCC1)O3)O[C@H](C1CCCCC1)[C@@H](C1CCCCC1)O2` here?
A: Its TGI is > 50 µM.

Tested on: OVCAR-5 ovarian
Test: NCI-60 cell line screen, 48 h

Q: How did the TGI turn out when `CC1=NN(c2nc(N)nc(/C(C#N)=C/c3ccccc3O)n2)C(C)(C)C1` was run?
A: Its TGI is 30.4 µM.

Q: Which TGI does the source give for `Cc1c(-c2ccc(O)cc2)n(CCCCCCNCCOC(=O)NCCCc2ccc(N(CCCl)CCCl)cc2)c2ccc(O)cc12` here?
A: The TGI was 28.9 µM.

Q: With `COc1ccc(NC(=S)Nc2cc(C)cc(C)n2)cc1` as the compound, how does the TGI read?
A: The TGI was > 100 µM.

Q: For `CN(C)c1ccc(C2CC(c3ccc4ccccc4c3O)=NN2)cc1` (configuration not stated), which TGI is on record?
A: The TGI was > 100 µM.

Q: How did the TGI turn out when `CN1CCc2cc3c(c4c2C1C(O)c1ccccc1-4)OCO3` (configuration not stated) was run?
A: Its TGI is 44.4 µM.

Q: For `C1=CC2(C=CC13O[C@H](C1CCCCC1)[C@@H](C1CCCCC1)O3)O[C@H](C1CCCCC1)[C@@H](C1CCCCC1)O2`, which TGI is on record?
A: The TGI was > 50 µM.

Q: How did the TGI turn out when `CC(OC(=O)C(Cc1ccccc1)NC(=O)C(Cc1ccccc1)NC(=O)OC(C)(C)C)C(=O)OCc1ccccc1` (stereo not drawn) (Boc-Phe-Phe-[Lac]-OBn; configuration not given here) was run?
A: Its TGI is > 100 µM.

Tested on: OVCAR-8 ovarian
Test: NCI-60 cell line screen, 48 h

Q: How did the TGI turn out when `CC1=NN(c2nc(N)nc(/C(C#N)=C/c3ccccc3O)n2)C(C)(C)C1` was run?
A: Its TGI is 61.6 µM.

Q: `Cc1c(-c2ccc(O)cc2)n(CCCCCCNCCOC(=O)NCCCc2ccc(N(CCCl)CCCl)cc2)c2ccc(O)cc12` was tested. Which TGI did it give?
A: The TGI was 2.88 µM.
